Measured values from patent US10570179B2, “Substituted urea depsipeptide analogs as activators of the CLPP endopeptidase” (priority 2016, dated 2020).
In brackets after ≈: the same amount, converted by molar mass. Numbered stars: 1 amine (or outer) side, 2 acyl side, 3 side chain; on linkers, the order of the positions; unused ones are H or OH. Bridge positions count the residues as written; N and C are the ends. Square brackets hold non-standard residues; d marks the D form. Peptide text beside a SMILES is read from it. * marks the point of attachment. Phe(3-CF3) = N[C@@H](Cc1cccc(C(F)(F)F)c1)C(=O)O; Piperazine(2S-CO,4-Me) = CN1CCN[C@H](C(=O)O)C1; NH(1,3-benzodioxol-5-yl) = c1cc2c(cc1N*)OCO2; Morpholine(3S-CO) = O=C(O)[C@@H]1COCCN1; Phe(3-Me) = Cc1cccc(C[C@H](N)C(=O)O)c1; NH(4-Cl-2-F-phenyl) = Fc1cc(Cl)ccc1N*; Pro(4R-Me) = C[C@H]1CN[C@H](C(=O)O)C1; Propanoyl(3-NMe2) = CN(C)CCC(=O)*; X1 = O=C([C@@H]1CSCCN1[*:1])[*:2]; Hyp = O=C(O)[C@@H]1C[C@@H](O)CN1; aThr = C[C@H](O)[C@H](N)C(=O)O; Pip = O=C(O)[C@@H]1CCCCN1; X3 = c1cc2c(cc1N*)OCCO2; CO = O=C([*:1])[*:2]; X2 = Fc1cc(N*)ccc1Cl

How the values were obtained:
[1] = Plasma protein binding, rapid equilibrium dialysis; format: in vitro ADME, human; details: human, 4 h, 10 μM, pH 7.4
In short: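 Compound spiked at 10 μM (0.1% DMSO) into human plasma, dialysed against DPBS pH 7.4 across 8 K MWCO RED membrane for 4 h at 37 °C with shaking. Both chambers quantified by LC-MS against warfarin internal standard; % free = buffer/plasma concentration ×100, % bound = 100 − % free.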

[2] = Microsomal metabolic stability; format: in vitro ADME, mouse; details: CD-1, mouse, pH 7.4
In short: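 CD-1 mouse liver microsomes (0.6381 mg/mL protein microsomal solution, 0.1 M potassium phosphate pH 7.4 with EDTA) were incubated with compound and an NADPH-regenerating system at 37 °C, in triplicate. Acetonitrile/warfarin quench at 0, 15, 30, 60, 120 and 240 min, then LCMS. Half-life came from a first-order least-squares fit.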

[3] = test system: S. pneumoniae; assay: Minimal inhibitory concentration, microbroth dilution; format: cell-based; details: Streptococcus pneumoniae; MIC; read-out: Minimal Inhibitory Concentrations (μM) S. pneumoniae
In short: (§1)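 MICs were determined by CLSI broth microdilution, using two-fold compound dilutions from a final 200 μM and about 10^5 cfu/mL inoculum. Plates were incubated aerobically at 37 °C overnight. The MIC was read visually as the lowest concentration preventing growth.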

[4] = test system: E. faecails; assay: as above; format: cell-based; details: Enterococcus faecalis; MIC; read-out: Minimal Inhibitory Concentrations (μM) E. faecails
In short: as §1

[5] = test system: S. aureus USA 300; assay: as above; format: cell-based; details: Staphylococcus aureus, USA300; MIC; read-out: Minimal Inhibitory Concentrations (μM) S. aureus USA 300
In short: as §1

[6] = test system: MRSA NRS70; assay: as above; format: cell-based; details: Staphylococcus aureus; MIC; read-out: Minimal Inhibitory Concentrations (μM) MRSA NRS70
In short: as §1

[7] = test system: S. pyogenes; assay: as above; format: cell-based; details: Streptococcus pyogenes; MIC; read-out: Minimal Inhibitory Concentrations (μM) S. pyogenes
In short: as §1

Row | SMILES | Human [1] [%] | Mouse [2] | MIC [3] [µM] | MIC [4] [µM] | MIC [5] [µM] | MIC [6] [µM] | MIC [7] [µM]
1 | C[C@@H]1C[C@H]2C(=O)OC[C@H](NC(=O)[C@H](Cc3cccc(C(F)(F)F)c3)NC(=O)Nc3ccc(Cl)cc3F)C(=O)N3CCC[C@H]3C(=O)N3CCN(C)C[C@H]3C(=O)N[C@@H](C)C(=O)N2C1 [Compound 18, (S)-2-(3-(4-CHLORO-2-FLUOROPHENYL)UREIDO)-3-(3-(TRIFLUOROMETHYL)PHENYL)-N-((6AS,12S,15AS,17R,21S,23AS)-2,17,21-TRIMETHYL-6,11,15,20,23-PENTAOXOOCTADECAHYDRO-2H,6H,11H,15H-PYRAZINO[2,1-I]DIPYRROLO[2,1-C:2′,1′-L][1]OXA[4,7,10,13]TETRAAZACYCLOHEXADECIN-12-YL)PROPANAMIDE] ({NH(4-Cl-2-F-phenyl)-CO}-[Phe(3-CF3)]SP[Piperazine(2S-CO,4-Me)]A[Pro(4R-Me)]; ester 2-C) | 99.0 ± 0.1 | 1.88 ± 0.12 h | < 0.02 | 0.313 (≈ 0.275 µg/mL) | 10 (≈ 8.79 µg/mL) | 5 (≈ 4.4 µg/mL) | 0.625 (≈ 0.55 µg/mL)
2 | Cc1cccc(C[C@H](NC(=O)Nc2ccc3c(c2)OCO3)C(=O)N[C@H]2COC(=O)[C@@H]3C[C@@H](C)CN3C(=O)[C@H](C)NC(=O)[C@@H]3CN(C)CCN3C(=O)[C@@H]3CCCN3C2=O)c1 [Compound 17, (S)-2-(3-(BENZO[D][1,3]DIOXOL-5-YL)UREIDO)-3-(M-TOLYL)-N-((6AS,12S,15AS,17R,21S,23AS)-2,17,21-TRIMETHYL-6,11,15,20,23-PENTAOXOOCTADECAHYDRO-2H,6H,11H,15H-PYRAZINO[2,1-I]DIPYRROLO[2,1-C:2′,1′-L][1]OXA[4,7,10,13]TETRAAZACYCLOHEXADECIN-12-YL)PROPANAMIDE] ({NH(1,3-benzodioxol-5-yl)-CO}-[Phe(3-Me)]SP[Piperazine(2S-CO,4-Me)]A[Pro(4R-Me)]; ester 2-C) | 95.4 ± 1.1 | 4.83 ± 0.46 h | 0.313 (≈ 0.256 µg/mL) | 1.25 (≈ 1.02 µg/mL) | 10 (≈ 8.17 µg/mL) | 5 (≈ 4.08 µg/mL) | 1.25 (≈ 1.02 µg/mL)
3 | Cc1cccc(C[C@H](NC(=O)Nc2ccc(Cl)cc2F)C(=O)N[C@H]2COC(=O)[C@@H]3C[C@@H](C)CN3C(=O)[C@H](C)NC(=O)[C@@H]3CN(C)CCN3C(=O)[C@@H]3CCCN3C2=O)c1 [Compound 13, (S)-2-(3-(4-CHLORO-2-FLUOROPHENYL)UREIDO)-3-(M-TOLYL)-N-((6AS,12S,15AS,17R,21S,23AS)-2,17,21-TRIMETHYL-6,11,15,20,23-PENTAOXOOCTADECAHYDRO-2H,6H,11H,15H-PYRAZINO[2,1-I]DIPYRROLO[2,1-C:2′,1′-L][1]OXA[4,7,10,13]TETRAAZACYCLOHEXADECIN-12-YL)PROPANAMIDE] ({NH(4-Cl-2-F-phenyl)-CO}-[Phe(3-Me)]SP[Piperazine(2S-CO,4-Me)]A[Pro(4R-Me)]; ester 2-C) | 97.0 ± 0.6 | 0.49 ± 0.03 h | 0.156 (≈ 0.129 µg/mL) | 0.625 (≈ 0.516 µg/mL) | 2.5 (≈ 2.06 µg/mL) | 1.25 (≈ 1.03 µg/mL) | 0.313 (≈ 0.258 µg/mL)
4 | Cc1cccc(C[C@H](NC(=O)Nc2ccc(Cl)cc2F)C(=O)N[C@@H]2C(=O)N3CCC[C@H]3C(=O)N3CCSC[C@H]3C(=O)N[C@@H](C)C(=O)N3C[C@H](C)C[C@H]3C(=O)O[C@H]2C)c1 [Compound 38, (S)-2-(3-(4-CHLORO-2-FLUOROPHENYL)UREIDO)-3-(M-TOLYL)-N-((6AS,12S,13S,15AS,17R,21S,23AR)-13,17,21-TRIMETHYL-6,11,15,20,23-PENTAOXOOCTADECAHYDRO-6H,11H,15H-DIPYRROLO[2,1-C:2′,1′-L][1,4]THIAZINO[3,4-I][1]OXA[4,7,10,13]TETRAAZACYCLOHEXADECIN-12-YL)PROPANAMIDE] ({NH(4-Cl-2-F-phenyl)-CO}-[Phe(3-Me)][aThr]P[X1]A[Pro(4R-Me)]; ester 2-C) | 99.5 ± 9.5 | 1.25 ± .253 h | – | 0.078 (≈ 0.0657 µg/mL) | 0.078 (≈ 0.0657 µg/mL) | 0.039 (≈ 0.0329 µg/mL) | –
5 | Cc1cccc(C[C@H](NC(=O)Nc2ccc3c(c2)OCCO3)C(=O)N[C@@H]2C(=O)N3C[C@H](O)C[C@H]3C(=O)N3CCOC[C@H]3C(=O)N[C@@H](C)C(=O)N3C[C@H](C)C[C@H]3C(=O)O[C@H]2C)c1 [Compound 27, (S)-2-(3-(2,3-DIHYDROBENZO[B][1,4]DIOXIN-6-YL)UREIDO)-N-((6AS,8R,12S,13S,15AS,17R,21S,23AS)-8-HYDROXY-13,17,21-TRIMETHYL-6,11,15,20,23-PENTAOXOOCTADECAHYDRO-6H,11H,15H-[1,4]OXAZINO[3,4-I]DIPYRROLO[2,1-C:2′,1′-L][1]OXA[4,7,10,13]TETRAAZACYCLOHEXADECIN-12-YL)-3-(M-TOLYL)PROPANAMIDE] ({X3-CO}-[Phe(3-Me)][aThr][Hyp][Morpholine(3S-CO)]A[Pro(4R-Me)]; ester 2-C) | 91.1 ± 1.1 | 0.79 ± .795 h | – | 2.5 (≈ 2.12 µg/mL) | 20 (≈ 17 µg/mL) | 10 (≈ 8.48 µg/mL) | –
6 | Cc1cccc(C[C@H](NC(=O)Nc2ccc(Cl)c(F)c2)C(=O)N[C@@H]2C(=O)N3CCC[C@H]3C(=O)N3CCCC[C@H]3C(=O)N[C@@H](C)C(=O)N3C[C@H](C)C[C@H]3C(=O)O[C@H]2C)c1 [Compound 35, (S)-2-(3-(4-CHLORO-3-FLUOROPHENYL)UREIDO)-3-(M-TOLYL)-N-((2R,6S,8AS,14AS,20S,21S,23AS)-2,6,21-TRIMETHYL-5,8,14,19,23-PENTAOXOOCTADECAHYDRO-1H,5H,14H,19H-PYRIDO[2,1-I]DIPYRROLO[2,1-C:2′,1′-L][1]OXA[4,7,10,13]TETRAAZACYCLOHEXADECIN-20-YL)PROPANAMIDE] ({X2-CO}-[Phe(3-Me)][aThr]P[Pip]A[Pro(4R-Me)]; ester 2-C) | 99.9 ± 9.9 | 1.54 ± .545 h | – | 1.25 (≈ 1.03 µg/mL) | 0.625 (≈ 0.515 µg/mL) | 0.313 (≈ 0.258 µg/mL) | –
7 | Cc1cccc(C[C@H](NC(=O)Nc2ccc3c(c2)OCO3)C(=O)N[C@H]2COC(=O)[C@@H]3C[C@@H](C)CN3C(=O)[C@H](C)NC(=O)[C@@H]3CCCCN3C(=O)[C@@H]3CCCN3C2=O)c1 [Compound 23, (S)-2-(3-(BENZO[D][1,3]DIOXOL-5-YL)UREIDO)-N-((2R,6S,8AS,14AS,20S,23AS)-2,6-DIMETHYL-5,8,14,19,23-PENTAOXOOCTADECAHYDRO-1H,5H,14H,19H-PYRIDO[2,1-I]DIPYRROLO[2,1-C:2′,1′-L][1]OXA[4,7,10,13]TETRAAZACYCLOHEXADECIN-20-YL)-3-(M-TOLYL)PROPANAMIDE] | 97.1 ± 0.2 | 35.8 ± 14.7 h | – | 0.625 (≈ 0.501 µg/mL) | 1.25 (≈ 1 µg/mL) | 0.625 (≈ 0.501 µg/mL) | –
8 | Cc1cccc(C[C@H](NC(=O)Nc2ccc(Cl)cc2F)C(=O)N[C@@H]2C(=O)N3C[C@H](OC(=O)CCN(C)C)C[C@H]3C(=O)N3CCCC[C@H]3C(=O)N[C@@H](C)C(=O)N3C[C@H](C)C[C@H]3C(=O)O[C@H]2C)c1 [Compound 46, (2R,6S,8AS,14AS,16R,20S,21S,23AS)-20-((S)-2-(3-(4-CHLORO-2-FLUOROPHENYL)UREIDO)-3-(M-TOLYL)PROPANAMIDO)-2,6,21-TRIMETHYL-5,8,14,19,23-PENTAOXOOCTADECAHYDRO-1H,5H,14H,19H-PYRIDO[2,1-I]DIPYRROLO[2,1-C:2′,1′-L][1]OXA[4,7,10,13]TETRAAZACYCLOHEXADECIN-16-YL 3-(DIMETHYLAMINO)PROPANOATE] ({NH(4-Cl-2-F-phenyl)-CO}-[Phe(3-Me)][aThr][Hyp](Propanoyl(3-NMe2))[Pip]A[Pro(4R-Me)]; ester 2-C) | 99.5 ± 0.3 | 0.22 ± 0.0 h | – | 0.156 (≈ 0.147 µg/mL) | 0.313 (≈ 0.294 µg/mL) | 0.313 (≈ 0.294 µg/mL) | –
